Data: patent publication US20020049223A1, “Quinoline and naphthyridine carboxylic acid antibacterials” (priority 1999, published 2002)
Values belong to the compound of their own block, whether it stands above or below them.

Experiments:
Test in all cases: Assay B: in vitro antibacterial activity, broth microdilution MIC (NCCLS)
Assay type in all cases: cell-based
[1] = test system: Enterococcus faecalis PIU 1967; conditions: Table 2, Assay B, cation-adjusted Mueller Hinton broth, 35° C., 16 to 20 hr; code B = Enterococcus faecalis PIU 1967; unit assumed
Summary of the method: (§1)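 MIC is the lowest concentration with no visible growth after serial two-fold dilution in cation-adjusted Mueller Hinton broth, approximately 5×10^5 CFU/mL inoculum, 16-20 h at 35 °C in air (NCCLS). Broth for H. influenzae gets 5 g/L yeast extract, 0.3 mmol/L hematin and 15 mg/L NAD, for S. pneumoniae 3% lysed horse blood; both incubated 20-24 h.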

Escherichia coli JUHL = conditions: Table 2, Assay B, cation-adjusted Mueller Hinton broth, 35° C., 16 to 20 hr; code D = Escherichia coli JUHL; unit assumed
Summary of the method: as §1

[2] = test system: Haemophilus influenzae DILL AMP R; conditions: Table 2, Assay B, Mueller Hinton broth with yeast extract, hematin and NAD, 20 to 24 hr; code E = Haemophilus influenzae DILL AMP R; unit assumed
Summary of the method: as §1

[3] = test system: Staphylococcus aureus ATCC 6538P; conditions: Table 2, Assay B, cation-adjusted Mueller Hinton broth, 35° C., 16 to 20 hr; code A = Staphylococcus aureus ATCC 6538P; unit assumed
Summary of the method: as §1

[4] = test system: Streptococcus pneumoniae ATCC 6303; conditions: Table 2, Assay B, Mueller Hinton broth with 3% lysed horse blood, 20 to 24 hr; code F = Streptococcus pneumoniae ATCC 6303; unit assumed
Summary of the method: as §1

Structure (SMILES): COc1c(-c2cc3c(s2)CCCC3N2CC(O)C2)ccc2c(=O)c(C(=O)O)cn(C3CC3)c12.Cl (stereo not shown) [Example 198, 1-cyclopropyl-7-(4-(3-hydroxy-1-azetidinyl)-4,5,6,7-tetrahydro-1-benzothien-2-yl)-8-methoxy-4-oxo-1,4-dihydro-3-guinolinecarboxvlic acid hydrochloride]
Antibacterial Activity (MIC's), B [1]: 0.25 µg/mL
Antibacterial Activity (MIC's), D (Escherichia coli JUHL): 0.5 µg/mL
Antibacterial Activity (MIC's), E [2]: 0.25 µg/mL
Antibacterial Activity (MIC's), A [3]: 0.25 µg/mL
Antibacterial Activity (MIC's), F [4]: 0.125 µg/mL

Structure (SMILES): Cl.NC1CCCc2sc(-c3ccc4c(=O)c(C(=O)O)cn(C5CC5)c4n3)cc21 (stereo not shown) [Example 200, 7-(4-amino-4,5,6,7-tetrahydro-1-benzothien-2-yl)-1-cyclopropyl-4-oxo-1,4-dihydro[1,8]naphthyridine-3-carboxylic acid hydrochloride]
Antibacterial Activity (MIC's), B [1]: 0.125 µg/mL
Antibacterial Activity (MIC's), D (Escherichia coli JUHL): 0.06 µg/mL
Antibacterial Activity (MIC's), E [2]: 0.03 µg/mL
Antibacterial Activity (MIC's), A [3]: 0.03 µg/mL
Antibacterial Activity (MIC's), F [4]: 0.125 µg/mL

Structure (SMILES): COc1c(-c2cc3c(s2)CCC(F)(F)C3N)ccc2c(=O)c(C(=O)O)cn(C3CC3)c12 (stereo not shown) [Example 206, 7-(4-amino-5,5-difluoro-4,5,6,7-tetrahydro-1-benzothien-2-yl)-1-cyclopropyl-8-methoxy-4-oxo-1,4-dihydro-3-quinolinecarboxylic acid]
Antibacterial Activity (MIC's), B [1]: 0.125 µg/mL
Antibacterial Activity (MIC's), D (Escherichia coli JUHL): 1 µg/mL
Antibacterial Activity (MIC's), E [2]: 0.5 µg/mL
Antibacterial Activity (MIC's), A [3]: 0.03 µg/mL
Antibacterial Activity (MIC's), F [4]: 0.5 µg/mL

Structure (SMILES): COc1c(-c2cc3c(s2)CCC(C)(CO)C3=O)ccc2c(=O)c(C(=O)O)cn(C3CC3)c12 (stereo not shown) [Example 207, 1-cyclopropyl-7-(5-(hydroxymethyl)-5-methyl-4-oxo-4,5,6,7-tetrahydro-1-benzothien-2-yl)-8-methoxy-4-oxo-1,4-dihydro-3-quinolinecarboxylic acid]
Antibacterial Activity (MIC's), B [1]: 0.125 µg/mL
Antibacterial Activity (MIC's), D (Escherichia coli JUHL): 1 µg/mL
Antibacterial Activity (MIC's), E [2]: 0.125 µg/mL
Antibacterial Activity (MIC's), A [3]: 0.015 µg/mL
Antibacterial Activity (MIC's), F [4]: 0.5 µg/mL

Continued, values first:

Antibacterial Activity (MIC's), B [1]: 0.125 µg/mL
Antibacterial Activity (MIC's), D (Escherichia coli JUHL): 0.25 µg/mL
Antibacterial Activity (MIC's), E [2]: 0.125 µg/mL
Antibacterial Activity (MIC's), A [3]: 0.03 µg/mL
Antibacterial Activity (MIC's), F [4]: 0.06 µg/mL
Structure (SMILES): COc1c(-c2cc3c(s2)CCC(C)C3N)ccc2c(=O)c(C(=O)O)cn(C3CC3)c12.Cl (stereo not shown) [Example 199, 7-(4-amino-5-methyl-4,5,6,7-tetrahydro-1-benzothien-2-yl)-1-cyclopropyl-8-methoxy-4-oxo-1,4-dihydro-3-quinolinecarboxylic acid hydrochloride]

Antibacterial Activity (MIC's), B [1]: 0.5 µg/mL
Antibacterial Activity (MIC's), D (Escherichia coli JUHL): 0.125 µg/mL
Antibacterial Activity (MIC's), E [2]: 0.015 µg/mL
Antibacterial Activity (MIC's), A [3]: 0.125 µg/mL
Antibacterial Activity (MIC's), F [4]: 0.25 µg/mL
Structure (SMILES): COc1c(-c2cc3c(s2)C(O)CNC3)ccc2c(=O)c(C(=O)O)cn(C3CC3)c12 (stereo not shown) [Example 202, 1-cyclopropyl-7-(7-hydroxy-4,5,6,7-tetrahydrothieno[3,2-c]pyridin-2-yl)-8-methoxy-4-oxo-1,4-dihydro-3-quinolinecarboxylic acid]

Antibacterial Activity (MIC's), B [1]: 0.03 µg/mL
Antibacterial Activity (MIC's), D (Escherichia coli JUHL): 0.125 µg/mL
Antibacterial Activity (MIC's), E [2]: ≤ 0.004 µg/mL
Antibacterial Activity (MIC's), A [3]: ≤ 0.004 µg/mL
Antibacterial Activity (MIC's), F [4]: 0.125 µg/mL
Structure (SMILES): COc1c(-c2cc3c(s2)CCC(F)(F)C3O)ccc2c(=O)c(C(=O)O)cn(C3CC3)c12 (stereo not shown) [Example 204, 1-cyclopropyl-7-(5,5-difluoro-4-hydroxy-4,5,6,7-tetrahydro-1-benzothien-2-yl)-8-methoxy-4-oxo-1,4-dihydro-3-quinolinecarboxylic acid]

Antibacterial Activity (MIC's), B [1]: 0.5 µg/mL
Antibacterial Activity (MIC's), D (Escherichia coli JUHL): 0.25 µg/mL
Antibacterial Activity (MIC's), E [2]: 0.06 µg/mL
Antibacterial Activity (MIC's), A [3]: 0.125 µg/mL
Antibacterial Activity (MIC's), F [4]: 0.25 µg/mL
Structure (SMILES): COc1c(-c2cc3c(s2)C(N)CNC3)ccc2c(=O)c(C(=O)O)cn(C3CC3)c12 (stereo not shown) [Example 208, 7-(7-amino-4,5,6,7-tetrahydrothieno[3,2-c]pyridin-2-yl)-1-cyclopropyl-8-methoxy-4-oxo-1,4-dihydro-3-quinolinecarboxylic acid]
